For orientation: IC50 means the concentration needed to halve the response being measured.

This assay addresses T1, human B1 receptor (Homo sapiens, UniProt P46663).
T1 construct: host or cells: CHO-K1
T1 sequence (P46663 1-353): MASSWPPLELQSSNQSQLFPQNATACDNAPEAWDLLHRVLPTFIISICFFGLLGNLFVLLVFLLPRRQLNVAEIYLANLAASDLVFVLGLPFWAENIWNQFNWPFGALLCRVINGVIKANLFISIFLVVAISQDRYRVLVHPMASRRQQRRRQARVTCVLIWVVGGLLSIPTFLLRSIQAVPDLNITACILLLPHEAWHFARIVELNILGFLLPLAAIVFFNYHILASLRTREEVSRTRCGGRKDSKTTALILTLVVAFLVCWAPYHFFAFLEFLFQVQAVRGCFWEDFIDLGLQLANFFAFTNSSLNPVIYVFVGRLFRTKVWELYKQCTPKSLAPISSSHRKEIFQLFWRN
The assay can be described thus: Calcium flux assay (FLIPR) with recombinant CHO-K1 cells expressing human B1 receptor. It counts as cell-based. The protocol:
The potency to inhibit the Bradykinin B1 receptors was determined for the example compounds of this invention in a cell-based fluorescent calcium-mobilisation assay. The assay measures the ability of example compounds to inhibit Bradykinin B1 receptor agonist-induced increase of intracellular free Ca^2+ in the cell line expressing B1 receptor. Specifically, calcium indicator-loaded cells are pre-incubated in the absence or presence of different concentrations of example compounds followed by the stimulation with a selective B1 receptor agonist peptide. The change of the intracellular Ca^2+ concentration is monitored with a fluorescent plate reader FLIPR (Molecular Devices).
Calcium Flux Assays (FLIPR) with Cells Expressing Bradykinin B1 Receptor Calcium Flux Assay (FLIPR) with Recombinant Cells for Bradykinin B1 Receptor Antagonist, Either in the Presence (hB1 IC50) or Absence (hB1 free IC50) of 0.1% Bovine Serum Albumin (BSA) in Assay Buffer
CHO-K1 cell line expressing human B1 receptor was purchased from Euroscreen (Gosselies, Belgium, with reference name hB1-D1). The cells were grown in Nutrient Mixture Ham's F12 (Sigma) containing 10% Foetal bovine serum (Sigma) and 400 μg/mL G418 (Sigma), 5 μg/mL puromycin (Sigma).
For the calcium flux assay, 80% confluent cells were detached from the culture vessels with Versene (Gibco), and seeded into 384-well plates (Cell binding Surface; Corning, N.Y.; #3683) at a density of 15,000 cells per well. Cells were seeded in a volume of 50 μL in medium without antibiotics and incubated overnight in a humidified atmosphere with 5% CO2 at 37° C. […] The calcium indicator loaded cells were incubated at 37° C. for 2 hrs. Extracellular dye was then removed and each well was filled with 45 μL of assay buffer. Cell plates were kept in dark until used. Example compounds were assayed at 8 concentrations in triplicate. Serial 10-fold dilutions in 100% DMSO were made at a 100-times higher concentration than the final concentration, and then diluted 1:10 in assay buffer. 5 μL of each diluted compound was added to the well of cell plates (yielding final concentration with 1% DMSO), and incubated for 30 min at 28° C. before the addition of B1 receptor agonist on the FLIPR instrument.
Agonist plates contained the agonist Lys-(Des-Arg)-Bradykinin (Bachem, Brackley) at 3.5×EC90 in assay buffer with 1% DMSO. The addition of agonist 20 μl per well to the assay plate was carried out on the FLIPR instrument while continuously monitoring Ca^2+-dependent fluorescence at 538 nm. A peptide antagonist Lys-(Des-Arg-Leu)-Bradykinin (Bachem, Brackley) at 20 μM was used to determine the full inhibition as control.
Peak fluorescence was used to determine the response to agonist obtained at each concentration of example compound by the following equation:
% Response=100*(RFU(example compound)−RFU(control)/(RFU(DMSO)−RFU(control)
Control=full inhibition by the peptide antagonist Lys-(Des-Arg-Leu)-Bradykinin at 20 μM
The response values were plotted against the logarithm of the compound concentrations. The compounds were tested in triplicates per plate and mean values were plotted in Excel XLfit to determine IC50 values, percentage of maximal inhibition and the Hill slopes.

Where [1] appears, read: presence of 0.1% BSA in assay buffer, read-out: hB1 IC50.
Where [2] appears, read: absence of 0.1% BSA in assay buffer, read-out: hB1 free IC50.

Like-named read-outs stand apart in the source and are kept apart here.

As to `COc1ccc(-c2ccc(NC(=O)C3CC3c3ccccc3F)cc2-c2nnn[nH]2)cc1OC` (racemic) [Example 3, N-[3′,4′-dimethoxy-2-(1H-tetrazol-5-yl)biphenyl-4-yl]-2-(2-fluorophenyl)cyclopro-panecarboxamide], the IC50 under setting [1] amounted to 0.101 µM.
Turning to `COc1ccc(-c2ccc(NC(=O)C3CC3c3ccc(Cl)cc3)cc2-c2nnn[nH]2)cc1OC` (racemic) [Example 9, 2-(4-chlorophenyl)-N-[3′,4′-dimethoxy-2-(1H-tetrazol-5-yl)biphenyl-4-yl]cyclo-propanecarboxamide], the IC50 under setting [1] is 0.019 µM.
For `COc1ccc(-c2ccc(NC(=O)C3CC3C3CCCCC3)cc2-c2nnn[nH]2)cc1` (racemic) [Example 37, 2-cyclohexyl-N-[4′-methoxy-2-(1H-tetrazol-5-yl)biphenyl-4-yl]cyclopropanecarbox-amide], the IC50 under setting [1] was 0.469 µM.
On the same count and under the same terms, with `COc1ccc(-c2cc(C)c(NC(=O)C3CC3C3CCCCC3)cc2-c2nnn[nH]2)cc1C` (racemic) [Example 74, 2-Cyclohexyl-N-[4′-methoxy-3′,5-dimethyl-2-(1H-tetrazol-5-yl)biphenyl-4-yl]cyclopro-panecarboxamide] the figure was 0.299 µM.
For `Cc1cccc(C2CC2C(=O)Nc2ccc(-c3cc4ccccc4s3)c(-c3nnn[nH]3)c2)c1` (racemic) [Example 76, N-[4-(1-Benzothiophen-2-yl)-3-(1H-tetrazol-5-yl)phenyl]-2-(3-methylphenyl)cyclopro-panecarboxamide], the IC50 under setting [2] is 0.249 µM.
Consider `COc1ccc(-c2ccc(NC(=O)C3CC3c3ccc(F)cc3)cc2-c2nnn[nH]2)cc1OC` (racemic) [Example 11, N-[3′,4′-dimethoxy-2-(1H-tetrazol-5-yl)biphenyl-4-yl]-2-(4-fluorophenyl)cyclopro-panecarboxamide], for which, under setting [1], the IC50 turned out to be 0.095 µM.
The same measure, in the same setting: with `COc1ccc(-c2ccc(NC(=O)C3CC3c3ccc(C)cc3)cc2-c2nnn[nH]2)cc1` (racemic) [Example 36, N-[4′-methoxy-2-(1H-tetrazol-5-yl)biphenyl-4-yl]-2-(4-methylphenyl)cyclopro-panecarboxamide] the figure was 0.662 µM; with `COc1ccc(-c2ccc(NC(=O)C3CC3c3cnn(C)c3)cc2-c2nnn[nH]2)cc1OC` (racemic) [Example 2, N-[3′,4′-dimethoxy-2-(1H-tetrazol-5-yl)biphenyl-4-yl]-2-(1-methyl-1H-pyrazol-4-yl)cyclopropanecarbox-amide], 2.12 µM; with `CCc1ccc(C2CC2C(=O)Nc2ccc(-c3ccc(OC)c(OC)c3)c(-c3nnn[nH]3)c2)cc1` (racemic) [Example 12, N-[3′,4′-dimethoxy-2-(1H-tetrazol-5-yl)biphenyl-4-yl]-2-(4-ethylphenyl)cyclopro-panecarboxamide], 0.341 µM.
Consider `CCOc1ccc(-c2cc(O)c(NC(=O)C3CC3c3ccc(Cl)cc3)cc2-c2nnn[nH]2)cn1` (single isomer, unassigned) [Example 50, 2-(4-chlorophenyl)-N-[4-(6-ethoxypyridin-3-yl)-2-hydroxy-5-(1H-tetrazol-5-yl)phenyl]cyclopropane-carboxamide], for which, under setting [1], the IC50 worked out at 0.024 µM.
For the molecule `COc1ccc(C2CC2C(=O)Nc2ccc(-c3ccc(OC)c(OC)c3)c(-c3nnn[nH]3)c2)cc1` (racemic) [Example 13, N-[3′,4′-dimethoxy-2-(1H-tetrazol-5-yl)biphenyl-4-yl]-2-(4-methoxyphenyl)cyclo-propanecarboxamide], the IC50 under setting [1] was determined as 1.05 µM.
Same read-out and setting: under `CCc1ccccc1C1CC1C(=O)Nc1ccc(-c2ccc(OC)c(OC)c2)c(-c2nnn[nH]2)c1` (racemic) [Example 5, N-[3′,4′-dimethoxy-2-(1H-tetrazol-5-yl)biphenyl-4-yl]-2-(2-ethylphenyl)cyclopro-panecarboxamide] stands 0.016 µM.
On to `O=C(Nc1ccc(-n2ccc(C(F)(F)F)n2)c(-c2nnn[nH]2)c1)C1CC1c1ccc(Cl)cc1` (racemic) [Example 47, 2-(4-Chlorophenyl)-N-{3-(1H-tetrazol-5-yl)-4-[3-(trifluoromethyl)-1H-pyrazol-1-yl]phenyl}cyclopropane-carboxamide], for which, under setting [2], the IC50 is 1.22 µM.
`COCc1ccc(-c2ccc(NC(=O)C3CC3C3CCCCC3)cc2-c2nnn[nH]2)cc1C` (racemic) [Example 33, 2-cyclohexyl-N-[4′-(methoxymethyl)-3′-methyl-2-(1H-tetrazol-5-yl)biphenyl-4-yl]cyclo-propanecarboxamide]: the IC50 under setting [1] worked out at 0.028 µM.
Regarding `CCOc1ncc(-c2ccc(NC(=O)C3CC3c3ccc(Cl)cc3)cc2-c2nnn[nH]2)cn1` (racemic) [Example 27, 2-(4-Chlorophenyl)-N-[4-(2-ethoxypyrimidin-5-yl)-3-(1H-tetrazol-5-yl)phenyl]cyclopropane-carboxamide], under setting [2], the IC50 was 0.013 µM.
On to `O=C(Nc1ccc(-c2ccc(C(F)(F)F)nc2)c(-c2nnn[nH]2)c1)C1CC1C1CCCCC1` (racemic) [Example 30, 2-Cyclohexyl-N-{3-(1H-tetrazol-5-yl)-4-[6-(trifluoromethyl)pyridin-3-yl]phenyl}cyclopro-panecarboxamide], for which the half-inhibitory concentration (IC50) reads like this: under setting [2], 0.514 µM; under setting [1], 3.3 µM.
Regarding `COc1ccc(-c2ccc(NC(=O)C3CC3C3CCCCC3)cc2-c2nnn[nH]2)cc1C` (single isomer, unassigned) [Example 35, 2-Cyclohexyl-N-[4′-methoxy-3′-methyl-2-(1H-tetrazol-5-yl)biphenyl-4-yl]cyclopropanecarbox-amide], the IC50 under setting [1] came to 0.378 µM.
Same read-out and setting: under `COc1cncc(-c2ccc(NC(=O)C3CC3c3ccc(Cl)cc3)cc2-c2nnn[nH]2)c1` (racemic) [Example 26, 2-(4-Chlorophenyl)-N-[4-(5-methoxypyridin-3-yl)-3-(1H-tetrazol-5-yl)phenyl]cyclopro-panecarboxamide] stands 0.372 µM.
In the case of `CC(C)(C)c1ccn(-c2ccc(NC(=O)C3CC3c3ccc(Cl)cc3)cc2-c2nnn[nH]2)n1` (racemic) [Example 45, N-[4-(3-tert-butyl-1H-pyrazol-1-yl)-3-(1H-tetrazol-5-yl)phenyl]-2-(4-chlorophenyl)cyclopro-panecarboxamide], under setting [2], the IC50 was found to be 0.463 µM.
`COc1ccc(-c2cc(F)c(NC(=O)C3CC3c3ccc(Cl)cc3)cc2-c2nnn[nH]2)cc1OC` (racemic) [Example 54, 2-(4-Chlorophenyl)-N-[5-fluoro-3′,4′-dimethoxy-2-(1H-tetrazol-5-yl)biphenyl-4-yl]cyclopro-panecarboxamide]: under setting [1], the IC50 is 0.026 µM.
`O=C(Nc1ccc(-c2ccc(C(F)(F)F)nc2)c(-c2nnn[nH]2)c1)C1CC1c1ccccc1` (racemic) [Example 28, 2-Phenyl-N-{3-(1H-tetrazol-5-yl)-4-[6-(trifluoromethyl)pyridin-3-yl]phenyl}cyclopro-panecarboxamide]: the IC50 under setting [2] is 0.509 µM.
With `O=C(Nc1cc(F)c(-c2ccc(C(F)(F)F)nc2)c(-c2nnn[nH]2)c1)C1CC1c1ccc(Cl)cc1` (racemic) [Example 62, 2-(4-chlorophenyl)-N-{3-fluoro-5-(1H-tetrazol-5-yl)-4-[6-(trifluoromethyl)pyridin-3-yl]phenyl}cyclopro-panecarboxamide], the IC50 under setting [2] is 0.947 µM.
Regarding `COc1ccc(-c2cc(C)c(NC(=O)C3CC3c3ccc(Cl)cc3)cc2-c2nnn[nH]2)cc1OC` (racemic) [Example 66, 2-(4-Chlorophenyl)-N-[3′,4′-dimethoxy-5-methyl-2-(1H-tetrazol-5-yl)biphenyl-4-yl]cyclopro-panecarboxamide], the IC50 under setting [1] worked out at 0.283 µM.
